Laboratory results taken from patent US20250145633A1, “SUBSTITUTED FURANOPYRIMIDINE COMPOUNDS AS PDE1 INHIBITORS” (Dart NeuroScience, LLC, priority 2017, published 2025).

Target: human PDE1B enzyme (Homo sapiens (Human), UniProt Q01064)
Experiment: IMAP TR-FRET PDE1B enzymatic assay
Assay type: biochemical
Conditions: negative log of half-maximal molar inhibitory concentration; 200 nM FAM-cAMP; values given as bins
Procedure: PDE1B inhibition was determined by an IMAP TR-FRET assay. The IMAP TR-FRET PDE assay was optimized for concentration of enzyme, Calmodulin, cAMP or cGMP substrate, DMSO tolerance, and incubation time.
Into each well of a solid white 1536 well plate (Corning) was dispensed 250 pg full-length recombinant NH-terminal GST tagged human PDE1B enzyme (BPS Bioscience Cat #60011, San Diego, CA) in 2.5 μL IMAP BSA reaction buffer (Molecular Devices, Sunnyvale, CA) containing 10 U/ml Calmodulin and 2.5 mM CaCl2) (Sigma Aldrich.) After a brief centrifugation, 30 nL of compound was added by transfer from 1 mM stock in DMSO using a Kalypsys 1536 Pintool. Plates were incubated for 5 minutes at room temperature before dispensing 1.5 μL of 533 nM 5-carboxy fluorescein (FAM)-labeled cAMP (Molecular Devices, Sunnyvale, CA) for a final concentration of 200 nM. After a brief centrifugation, the plates were incubated for 30 minutes at room temperature. The assay was terminated by adding 5 μL IMAP binding reagent/Tb complex (Molecular Devices, Sunnyvale, CA) to each well.
Plates were incubated for 1 hour at room temperature and were read on a Viewlux multimode plate reader (Perkin Elmer). The instrument was set to excite using the DUG11 filter and measure using 490/10 nm and 520/10 nm filters. Ratios of acceptor and donor were then calculated.
For IC50 calculations, the values of % efficacy versus a series of compound concentrations were then plotted using non-linear regression analysis of sigmoidal dose-response curves generated with the equation Y=[B+(T−B)]/[1+10((Log EC50−X)×Hill Slope)], where Y=percent activity, B=minimum percent efficacy, T=maximum percent efficacy, X=logarithm of compound and Hill Slope=slope factor or Hill coefficient. The IC50 value was determined by the concentration causing a half-maximal percent efficacy.

SMILES | PDE1b (pIC50)
Cc1oc2ncnc(NC3(C)CC3)c2c1C(=O)NCc1noc(C2CC2)n1 [Example 464, N-[(5-Cyclopropyl-1,2,4-oxadiazol-3-yl)methyl]-6-methyl-4-[(1-methylcyclopropyl)amino]furo[2,3-d]pyrimidine-5-carboxamide] | >8
COc1ccc(CNC(=O)c2c(C)oc3ncnc(NC4(C)CC4)c23)cc1Cl [Example 488, N-[(3-Chloro-4-methoxyphenyl)methyl]-6-methyl-4-[(1-methylcyclopropyl)amino]furo[2,3-d]pyrimidine-5-carboxamide] | >8
COc1cccc(C2CCN(C(=O)c3c(C)oc4ncnc(NC5(C)CC5)c34)C2)n1 (stereo not drawn) [Example 367, 5-[3-(6-Methoxypyridin-2-yl)pyrrolidine-1-carbonyl]-6-methyl-N-(1-methylcyclopropyl)furo[2,3-d]pyrimidin-4-amine] | >8
Cc1oc2ncnc(NC3(C)CC3)c2c1C(=O)NCCCN1CCCC1 [Example 752, 6-Methyl-4-[(1-methylcyclopropyl)amino]-N-[3-(pyrrolidin-1-yl)propyl]furo[2,3-d]pyrimidine-5-carboxamide] | <6
COc1cnc(C2CCN(C(=O)c3c(C)oc4ncnc(NC5(C)CC5)c34)CC2)nc1 [Example 370, 5-[4-(5-Methoxypyrimidin-2-yl)piperidine-1-carbonyl]-6-methyl-N-(1-methylcyclopropyl)furo[2,3-d]pyrimidin-4-amine] | >8
COc1ccc(C(C)NC(=O)c2c(C)oc3ncnc(NC4(C)CC4)c23)cc1 (stereo in doubt) [Example 560, N-[(1R)-1-(4-Methoxyphenyl)ethyl]-6-methyl-4-[(1-methylcyclopropyl)amino]furo[2,3-d]pyrimidine-5-carboxamide] | >8
COc1ccc(CNC(=O)c2c(C)oc3ncnc(NC4(C)CC4)c23)cn1 [Example 54, N-[(6-Methoxypyridin-3-yl)methyl]-6-methyl-4-[(1-methylcyclopropyl)amino]furo[2,3-d]pyrimidine-5-carboxamide] | >8

Same assay, conditions: negative log of half-maximal molar inhibitory concentration; 200 nM FAM-cAMP; values given as bins; read-out: PDE1b (pIC50) (converted)

SMILES | IC50 [nM]
Cc1oc2ncnc(NC3(C)CC3)c2c1C(=O)NCCn1ccnc1 [Example 189, N-[2-(1H-Imidazol-1-yl)ethyl]-6-methyl-4-[(1-methylcyclopropyl)amino]furo[2,3-d]pyrimidine-5-carboxamide] | 100 to 1000
COc1ccc(CNC(=O)c2c(C)oc3ncnc(NC4(C)CC4)c23)c(Cl)c1 [Example 551, N-[(2-Chloro-4-methoxyphenyl)methyl]-6-methyl-4-[(1-methylcyclopropyl)amino]furo[2,3-d]pyrimidine-5-carboxamide] | 10 to 100
Cc1oc2ncnc(NC3(C)CC3)c2c1C(=O)N(C)c1cnn(C(C)C)c1 [Example 470, N,6-Dimethyl-4-[(1-methylcyclopropyl)amino]-N-[1-(propan-2-yl)-1H-pyrazol-4-yl]furo[2,3-d]pyrimidine-5-carboxamide] | 100 to 1000
COCCOc1ncnc2c1CCN(C(=O)c1c(C)oc3ncnc(NC4(C)CC4)c13)C2 [Example 809, 5-[4-(2-Methoxyethoxy)-5H,6H,7H,8H-pyrido[3,4-d]pyrimidine-7-carbonyl]-6-methyl-N-(1-methylcyclopropyl)furo[2,3-d]pyrimidin-4-amine] | 10 to 100
Cc1oc2ncnc(NC3(C)CC3)c2c1C(=O)N1CC=C(c2ncc(F)cn2)C1 [Example 774, 5-[3-(5-Fluoropyrimidin-2-yl)-2,5-dihydro-1H-pyrrole-1-carbonyl]-6-methyl-N-(1-methylcyclopropyl)furo[2,3-d]pyrimidin-4-amine] | 10 to 100
C#CCN(Cc1ccc(OC)cc1)C(=O)c1c(C)oc2ncnc(NC3(C)CC3)c12 [Example 606, N-[(4-Methoxyphenyl)methyl]-6-methyl-4-[(1-methylcyclopropyl)amino}-N-(prop-2-yn-1-yl)furo[2,3-d]pyrimidine-5-carboxamide] | 10 to 100
Cc1oc2ncnc(NC3(C)CC3)c2c1C(=O)NC(C)(C)c1ccccc1 [Example 239, 6-Methyl-4-[(1-methylcyclopropyl)amino]-N-(2-phenylpropan-2-yl)furo[2,3-d]pyrimidine-5-carboxamide] | 10 to 100
COCc1nc2c(c(=O)[nH]1)CCN(C(=O)c1c(C)oc3ncnc(NC4(C)CC4)c13)C2 [Example 425, 2-(Methoxymethyl)-7-{6-methyl-4-[(1-methylcyclopropyl)amino]furo[2,3-d]pyrimidine-5-carbonyl}-3H,4H,5H,6H,7H,8H-pyrido[3,4-d]pyrimidin-4-one] | 100 to 1000
Cc1ccc(CNC(=O)c2c(C)oc3ncnc(NC4(C)CC4)c23)nn1 [Example 718, 6-Methyl-4-[(1-methylcyclopropyl)amino]-N-[(6-methylpyridazin-3-yl)methyl]furo[2,3-d]pyrimidine-5-carboxamide] | 10 to 100
Cc1oc2ncnc(NC3(C)CC3)c2c1C(=O)NCc1cncnc1 [Example 647, 6-Methyl-4-[(1-methylcyclopropyl)amino]-N-(pyrimidin-5-ylmethyl)furo[2,3-d]pyrimidine-5-carboxamide] | 100 to 1000
Cc1oc2ncnc(NC3(C)CC3)c2c1C(=O)N1CCN(c2ccc(F)c(F)c2)C(=O)C1 [Example 64, 1-(3,4-Difluorophenyl)-4-{6-methyl-4-[(1-methylcyclopropyl)amino]furo[2,3-d]pyrimidine-5-carbonyl}piperazin-2-one] | 10 to 100
Cc1oc2ncnc(NC3(C)CC3)c2c1C(=O)n1cccn1 [Example 410, 6-Methyl-N-(1-methylcyclopropyl)-5-(1H-pyrazole-1-carbonyl)furo[2,3-d]pyrimidin-4-amine] | 100 to 1000
Cc1oc2ncnc(NC3(C)CC3)c2c1C(=O)NCc1cccc(F)n1 [Example 280, N-[(6-Fluoropyridin-2-yl)methyl]-6-methyl-4-[(1-methylcyclopropyl)amino]furo[2,3-d]pyrimidine-5-carboxamide] | 10 to 100
CNc1ncnc2c1CCN(C(=O)c1c(C)oc3ncnc(NC4(C)CC4)c13)C2 [Example 792, 6-Methyl-5-[4-(methylamino)-5H,6H,7H,8H-pyrido[3,4-d]pyrimidine-7-carbonyl]-N-(1-methylcyclopropyl)furo[2,3-d]pyrimidin-4-amine] | 10 to 100
COCCN(Cc1cccc(OC)c1)C(=O)c1c(C)oc2ncnc(NC3(C)CC3)c12 [Example 580, N-(2-Methoxyethyl)-N-[(3-methoxyphenyl)methyl]-6-methyl-4-[(1-methylcyclopropyl)amino]furo[2,3-d]pyrimidine-5-carboxamide] | 10 to 100
CCC1(NC(=O)c2c(C)oc3ncnc(NC4(C)CC4)c23)CCOCC1 [Example 140, N-(4-Ethyloxan-4-yl)-6-methyl-4-[(1-methylcyclopropyl)amino]furo[2,3-d]pyrimidine-5-carboxamide] | 10 to 100
CCNC(=O)c1c(C)oc2ncnc(NC3(C)CC3)c12 [Example 82, N-Ethyl-6-methyl-4-[(1-methylcyclopropyl)amino]furo[2,3-d]pyrimidine-5-carboxamide] | 10 to 100
Cc1oc2ncnc(NC3(C)CC3)c2c1C(=O)N1CC2CC(C1)c1ccccc12 [Example 403, 5-{10-Azatricyclo[6.3.1.0^2,7]dodeca-2,4,6-triene-10-carbonyl}-6-methyl-N-(1-methylcyclopropyl)furo[2,3-d]pyrimidin-4-amine] | 100 to 1000
COc1cc(CNC(=O)c2c(C)oc3ncnc(NC4(C)CC4)c23)cc(OC)c1 [Example 495, N-[(3,5-Dimethoxyphenyl)methyl]-6-methyl-4-[(1-methylcyclopropyl)amino]furo[2,3-d]pyrimidine-5-carboxamide] | 10 to 100
Cc1oc2ncnc(NC3(C)CC3)c2c1C(=O)N1CCOC(c2ccncc2)C1 (stereo not drawn) [Example 119, 6-Methyl-N-(1-methylcyclopropyl)-5-[2-(pyridin-4-yl)morpholine-4-carbonyl]furo[2,3-d]pyrimidin-4-amine] | 100 to 1000
Cc1oc2ncnc(NC3(C)CC3)c2c1C(=O)N1CCOC(c2cccnc2)C1 (stereo not drawn) [Example 120, 6-Methyl-N-(1-methylcyclopropyl)-5-[2-(pyridin-3-yl)morpholine-4-carbonyl]furo[2,3-d]pyrimidin-4-amine] | 100 to 1000
Cc1oc2ncnc(NC3(C)CC3)c2c1C(=O)N1CCN(c2ncc(F)cn2)CC1C (stereo not drawn) [Example 357, 5-[4-(5-Fluoropyrimidin-2-yl)-2-methylpiperazine-1-carbonyl]-6-methyl-N-(1-methylcyclopropyl)furo[2,3-d]pyrimidin-4-amine] | 10 to 100
Cc1nc2cc(NC(=O)c3c(C)oc4ncnc(NC5(C)CC5)c34)ccc2o1 [Example 651, 6-Methyl-N-(2-methyl-1,3-benzoxazol-5-yl)-4-[(1-methylcyclopropyl)amino]furo[2,3-d]pyrimidine-5-carboxamide] | 10 to 100
